Some results are limits rather than exact numbers.

Conditions in all cases: read-out: pA2 (converted)
Test [1] addresses T1, Histamine H3 receptor (Cavia porcellus, UniProt Q9JI35). Kind of test: Antagonist activity at histamine H3 receptor in Cavia porcellus (guinea pig) ileum assessed as inhibition of electrically-induced contraction. Type of test: tissue-based.
Test [2] concerns the target T1, Histamine H3 receptor. Kind of test: Antagonist activity at histamine H3 receptor in Cavia porcellus (guinea pig) jejunum assessed as inhibition of electrically-induced contraction.
Another test has as its target Histamine H1 receptor (Cavia porcellus, UniProt P31389). Kind of test: Antagonist activity at histamine H1 receptor in Cavia porcellus (guinea pig) ileum assessed as inhibition of histamine-induced contraction.

T1 sequence (Q9JI35 whole entry): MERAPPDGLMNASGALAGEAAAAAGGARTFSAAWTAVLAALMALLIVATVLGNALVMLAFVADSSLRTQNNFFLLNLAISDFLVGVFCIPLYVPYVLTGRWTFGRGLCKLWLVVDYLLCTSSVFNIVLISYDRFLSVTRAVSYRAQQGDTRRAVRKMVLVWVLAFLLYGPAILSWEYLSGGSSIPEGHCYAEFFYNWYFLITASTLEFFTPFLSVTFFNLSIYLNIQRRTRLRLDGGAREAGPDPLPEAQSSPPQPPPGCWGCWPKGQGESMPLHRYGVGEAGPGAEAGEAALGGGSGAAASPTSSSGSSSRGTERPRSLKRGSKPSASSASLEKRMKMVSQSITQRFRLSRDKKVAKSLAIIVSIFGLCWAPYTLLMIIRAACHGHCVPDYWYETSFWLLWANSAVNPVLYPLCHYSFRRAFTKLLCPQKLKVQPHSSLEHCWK
Histamine H1 receptor, sequence (P31389 whole entry): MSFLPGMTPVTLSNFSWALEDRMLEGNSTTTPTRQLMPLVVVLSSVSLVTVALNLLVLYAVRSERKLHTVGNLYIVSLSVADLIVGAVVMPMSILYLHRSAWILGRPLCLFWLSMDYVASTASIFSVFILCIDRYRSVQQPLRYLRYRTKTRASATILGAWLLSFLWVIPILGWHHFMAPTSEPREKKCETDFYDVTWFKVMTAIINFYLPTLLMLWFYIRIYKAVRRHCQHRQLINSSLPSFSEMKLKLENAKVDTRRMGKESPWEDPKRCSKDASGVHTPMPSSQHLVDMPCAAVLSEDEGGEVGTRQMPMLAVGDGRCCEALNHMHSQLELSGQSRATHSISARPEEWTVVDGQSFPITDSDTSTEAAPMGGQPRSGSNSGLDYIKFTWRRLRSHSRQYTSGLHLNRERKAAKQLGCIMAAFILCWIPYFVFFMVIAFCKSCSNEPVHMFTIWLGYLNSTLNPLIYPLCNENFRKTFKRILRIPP

`CN(CCCCN1CCN(CCCCCCCOc2ccccc2)CC1)C(=O)c1ccccc1`: the Kb on Histamine H3 receptor [1] is 105 nM.
With `CN(CCCCN1CCN(CCCCCCCOc2ccccc2)CC1)C(=O)C(F)(F)F`, the Kb at Histamine H3 receptor [1] was 100 nM.
For `CC(=O)N(C)CCCCN1CCN(CCCCCCCOc2ccccc2)CC1`, the Kb on Histamine H3 receptor [1] was 69.2 nM.
Turning to `NCCCCCCCN1CCN(CCCCCCCOc2ccccc2)CC1`, at Histamine H3 receptor [2], the Kb is 214 nM.
For `NCCCCCCN1CCN(CCCCCCCOc2ccccc2)CC1`, the Kb at Histamine H3 receptor [2] is 214 nM.
`NCCCCCN1CCN(CCCCCCCOc2ccccc2)CC1`: the Kb at Histamine H3 receptor [2] was 102 nM.
Regarding `NCCCCN1CCN(CCCCCCCOc2ccccc2)CC1`, the Kb was more than 100000 nM on Histamine H1 receptor and 66.1 nM on Histamine H3 receptor [2].
Regarding `NCCN1CCN(CCCCCCCOc2ccccc2)CC1`, the Kb at Histamine H3 receptor [2] is 380 nM.
Still for that read-out and setting: next, `NCCCN1CCN(CCCCCCCCCOc2ccccc2)CC1`: 102 nM.
As for `NCCCN1CCN(CCCCCCCCOc2ccccc2)CC1`, at Histamine H3 receptor [2], the Kb is 145 nM.
Take `NCCCN1CCN(CCCCCCCOc2ccccc2)CC1`: the Kb at Histamine H3 receptor [2] is 91.2 nM.
Turning to `NCCCN1CCN(CCCCCCOc2ccccc2)CC1`, the Kb at Histamine H3 receptor [2] was 191 nM.
Regarding `NCCCN1CCN(CCCCCOc2ccccc2)CC1`, on Histamine H3 receptor [2], the Kb is 158 nM.
Consider `NCCCN1CCN(CCCCOc2ccccc2)CC1`, for which the Kb at Histamine H3 receptor [2] is 240 nM.
`NCCCN1CCN(CCCOc2ccccc2)CC1`: the Kb on Histamine H3 receptor [2] was 513 nM.
Consider `NCCCN1CCN(CCOc2ccccc2)CC1`, for which the Kb on Histamine H3 receptor [2] was 178 nM.
Same read-out and setting: the result for `S=C(NC1CCCCC1)N1CCC(c2cnc[nH]2)CC1` [THIOPERAMIDE] reads 2.19 nM.

For the origin of these results see ChEMBL document CHEMBL3046600, “1-Phenoxyalkyl-4-[(N,N-disubstitutedamino)alkyl]piperazine derivatives as non-imidazole histamine H3-antagonists” (Med Chem Res, 2013).
